From US10954246B2, “Compound of EOC315 Mod.I crystal form and preparation method thereof” (Taizhou EOC Pharma Co., Ltd., priority 2017, dated 2021)
Counter-ions that a name gives are not always drawn.

Tests used:
[1] = Long-term stability study (25° C., RH 60%); assay type: physicochemical; conditions: for Related substance Impurity 5 / Related substance Impurity 6 / Related substance Maximum single impurity / Related substance Impurity 1 / Related substance Impurity 2 / Related substance Impurity 3 / Related substance Total impurity / Related substance Impurity 4 / Crystalline form: 25° C./RH 60%; for Related substance Impurity 5 / Related substance Impurity 6: limit 0.10%; for Related substance Maximum single impurity: limit 0.15%; for Related substance Impurity 1 / Related substance Impurity 2 / Related substance Impurity 3: limit 0.17%; for Related substance Total impurity: limit 1.0%; for Related substance Impurity 4: limit 3.0%; for Crystalline form: limit ModI
Method: Long-term stability over twelve months was evaluated at 25° C. and a relative humidity of 60%; or accelerated stability over six months was evaluated at 40° C. and a relative humidity of 75%.

[2] = Thermogravimetric analysis (TGA); assay type: physicochemical
Method: The DTA curve of a test sample has an endothermic peak at 198.1° C., which is consistent with the DSC result.

## CNC(=O)c1cc(OCc2nnc(Nc3ccc(Cl)cc3)c3ccoc23)ccn1 [EOC315 crystalline form Mod. I, 4-(4-chloroanilino)-7-(2-methylaminocarbonyl-4-oxymethyl)pyridylfuro[2,3-d]pyridazine mesylate]
[1]; Month 0, listed as 151211
  Related substance Impurity 5: 0.02%
  Related substance Impurity 6: 0.01%
  Related substance Maximum single impurity: 0.0079%
  Related substance Impurity 3: 0.016%
  Related substance Total impurity: 0.53%
  Related substance Impurity 4: 0.36%
[1]; Month 0, listed as 151212
  Related substance Impurity 5: 0.01%
  Related substance Impurity 6: Undetected
  Related substance Maximum single impurity: 0.012%
  Related substance Impurity 3: 0.011%
  Related substance Total impurity: 0.65%
  Related substance Impurity 4: 0.46%
[1]; Month 0, listed as 151213
  Related substance Impurity 5: Undetected
  Related substance Impurity 6: Undetected
  Related substance Maximum single impurity: 0.0085%
  Related substance Impurity 3: 0.011%
  Related substance Total impurity: 0.52%
  Related substance Impurity 4: 0.35%
[1]; Month 0
  Related substance Impurity 1: Undetected
  Related substance Impurity 2: Undetected
  Crystalline form: ModI
[1]; Month 3
  Related substance Impurity 6: Undetected
  Related substance Maximum single impurity: Undetected
  Related substance Impurity 1: Undetected
  Related substance Impurity 2: Undetected
  Related substance Impurity 3: Undetected
[1]; Month 3, listed as 151211
  Related substance Impurity 5: 0.01%
  Related substance Total impurity: 0.5%
  Related substance Impurity 4: 0.4%
[1]; Month 3, listed as 151212
  Related substance Impurity 5: 0.02%
  Related substance Total impurity: 0.6%
  Related substance Impurity 4: 0.5%
[1]; Month 3, listed as 151213
  Related substance Impurity 5: 0.01%
  Related substance Total impurity: 0.5%
  Related substance Impurity 4: 0.38%
[1]; Month 6
  Related substance Impurity 6: 0.01%
  Related substance Impurity 1: Undetected
  Crystalline form: ModI
[1]; Month 6, listed as 151211
  Related substance Impurity 5: Undetected
  Related substance Maximum single impurity: 0.013%
  Related substance Impurity 2: 0.0028%
  Related substance Impurity 3: 0.099%
  Related substance Total impurity: 0.73%
  Related substance Impurity 4: 0.42%
[1]; Month 6, listed as 151212
  Related substance Impurity 5: 0.02%
  Related substance Maximum single impurity: 0.070%
  Related substance Impurity 2: Undetected
  Related substance Impurity 3: 0.031%
  Related substance Total impurity: 0.88%
  Related substance Impurity 4: 0.54%
[1]; Month 6, listed as 151213
  Related substance Impurity 5: Undetected
  Related substance Maximum single impurity: 0.016%
  Related substance Impurity 2: Undetected
  Related substance Impurity 3: 0.033%
  Related substance Total impurity: 0.63%
  Related substance Impurity 4: 0.40%
[1]; Month 9, listed as 151211
  Related substance Impurity 5: 0.02%
  Related substance Impurity 6: Undetected
  Related substance Maximum single impurity: 0.013%
  Related substance Total impurity: 0.61%
  Related substance Impurity 4: 0.43%
[1]; Month 9, listed as 151212
  Related substance Impurity 5: 0.01%
  Related substance Impurity 6: 0.01%
  Related substance Maximum single impurity: Undetected
  Related substance Total impurity: 0.77%
  Related substance Impurity 4: 0.56%
[1]; Month 9, listed as 151213
  Related substance Impurity 5: Undetected
  Related substance Impurity 6: Undetected
  Related substance Maximum single impurity: Undetected
  Related substance Total impurity: 0.58%
  Related substance Impurity 4: 0.42%
[1]; Month 9
  Related substance Impurity 1: Undetected
  Related substance Impurity 2: Undetected
  Related substance Impurity 3: Undetected
[1]; Month 12, listed as 151211
  Related substance Impurity 5: 0.01%
  Related substance Impurity 6: 0.03%
  Related substance Total impurity: 0.63%
  Related substance Impurity 4: 0.46%
[1]; Month 12, listed as 151212
  Related substance Impurity 5: Undetected
  Related substance Impurity 6: 0.02%
  Related substance Total impurity: 0.80%
  Related substance Impurity 4: 0.58%
[1]; Month 12, listed as 151213
  Related substance Impurity 5: 0.01%
  Related substance Impurity 6: Undetected
  Related substance Total impurity: 0.58%
  Related substance Impurity 4: 0.42%
[1]; Month 12
  Related substance Maximum single impurity: Undetected
  Related substance Impurity 1: Undetected
  Related substance Impurity 2: Undetected
  Related substance Impurity 3: Undetected
  Crystalline form: ModI
[1]; long-term and accelerated stability
  stability of the crystalline form (conclusion from tables 4 and 5): thermodynamically stable form
[2]
  degradation temperature: about 241.71 °C
